Experimental data as given in ChEMBL document CHEMBL5291721, “A preclinical secondary pharmacology resource illuminates target-adverse drug reaction associations of marketed drugs” (Nat Commun, 2023).

Legend:
[1] = target: T1, Muscarinic acetylcholine receptor M1 (Homo sapiens, UniProt P11229); assay type: functional, cell-based
T1 sequence (P11229 whole entry): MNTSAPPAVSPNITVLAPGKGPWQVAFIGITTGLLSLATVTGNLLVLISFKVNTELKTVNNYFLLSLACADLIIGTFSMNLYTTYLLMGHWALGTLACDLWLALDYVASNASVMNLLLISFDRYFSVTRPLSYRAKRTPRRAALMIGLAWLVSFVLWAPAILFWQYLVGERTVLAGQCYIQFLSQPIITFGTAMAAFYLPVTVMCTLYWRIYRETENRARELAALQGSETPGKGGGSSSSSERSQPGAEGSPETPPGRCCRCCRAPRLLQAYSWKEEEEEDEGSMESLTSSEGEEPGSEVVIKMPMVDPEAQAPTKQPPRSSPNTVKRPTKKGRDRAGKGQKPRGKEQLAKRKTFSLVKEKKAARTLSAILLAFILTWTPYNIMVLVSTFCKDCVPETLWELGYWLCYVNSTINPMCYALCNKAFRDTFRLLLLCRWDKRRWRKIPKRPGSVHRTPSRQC

Adenosine receptor A1 = target: T2, Adenosine receptor A1 (Homo sapiens, UniProt P30542)
T2 sequence (P30542 whole entry): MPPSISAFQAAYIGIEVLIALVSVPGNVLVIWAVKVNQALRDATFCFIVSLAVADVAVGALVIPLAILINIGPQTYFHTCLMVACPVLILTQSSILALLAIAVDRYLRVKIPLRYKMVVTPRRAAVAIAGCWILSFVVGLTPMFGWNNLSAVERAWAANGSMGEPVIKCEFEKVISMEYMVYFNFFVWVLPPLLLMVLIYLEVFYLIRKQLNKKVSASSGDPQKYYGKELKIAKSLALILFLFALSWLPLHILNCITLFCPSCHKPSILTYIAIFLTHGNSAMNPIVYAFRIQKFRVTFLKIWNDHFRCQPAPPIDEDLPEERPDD

[2] = target: T3, Alpha-1A adrenergic receptor (Homo sapiens, UniProt P35348); assay type: functional, cell-based
T3 sequence (P35348 whole entry): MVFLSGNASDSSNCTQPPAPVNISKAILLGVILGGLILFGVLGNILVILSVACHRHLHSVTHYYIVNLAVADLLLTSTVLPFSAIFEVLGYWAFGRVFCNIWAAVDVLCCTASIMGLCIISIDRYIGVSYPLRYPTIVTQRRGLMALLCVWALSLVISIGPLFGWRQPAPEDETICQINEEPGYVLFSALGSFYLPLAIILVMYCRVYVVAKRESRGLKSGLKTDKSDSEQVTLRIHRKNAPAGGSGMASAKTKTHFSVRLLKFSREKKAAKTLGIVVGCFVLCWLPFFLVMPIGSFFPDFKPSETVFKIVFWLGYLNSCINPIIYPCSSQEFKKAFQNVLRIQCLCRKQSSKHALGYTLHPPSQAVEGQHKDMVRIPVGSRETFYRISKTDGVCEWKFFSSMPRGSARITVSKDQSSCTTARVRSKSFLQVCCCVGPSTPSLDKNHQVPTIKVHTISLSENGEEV

Vasopressin V1a receptor = Vasopressin V1a receptor (Homo sapiens, UniProt P37288)
[3] = target: Voltage-dependent L-type calcium channel subunit alpha-1C (Rattus norvegicus, UniProt P22002); assay type: functional
[4] = target: T4, Muscarinic acetylcholine receptor M2 (Homo sapiens, UniProt P08172); assay type: functional, cell-based
T4 sequence (P08172 whole entry): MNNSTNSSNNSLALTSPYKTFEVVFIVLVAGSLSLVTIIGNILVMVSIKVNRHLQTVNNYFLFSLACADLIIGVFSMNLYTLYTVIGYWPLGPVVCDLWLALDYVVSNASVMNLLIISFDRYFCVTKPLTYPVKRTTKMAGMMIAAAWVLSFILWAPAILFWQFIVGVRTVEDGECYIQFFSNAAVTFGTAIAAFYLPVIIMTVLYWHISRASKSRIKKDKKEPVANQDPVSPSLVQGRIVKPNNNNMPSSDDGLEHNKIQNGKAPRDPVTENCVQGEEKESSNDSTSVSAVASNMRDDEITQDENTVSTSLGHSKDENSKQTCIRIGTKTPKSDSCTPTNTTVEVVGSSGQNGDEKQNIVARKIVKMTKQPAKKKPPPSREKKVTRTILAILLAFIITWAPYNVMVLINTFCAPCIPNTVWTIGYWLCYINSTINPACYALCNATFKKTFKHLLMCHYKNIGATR

Endothelin-1 receptor = target: T5, Endothelin-1 receptor (Homo sapiens, UniProt P25101)
T5 sequence (P25101 whole entry): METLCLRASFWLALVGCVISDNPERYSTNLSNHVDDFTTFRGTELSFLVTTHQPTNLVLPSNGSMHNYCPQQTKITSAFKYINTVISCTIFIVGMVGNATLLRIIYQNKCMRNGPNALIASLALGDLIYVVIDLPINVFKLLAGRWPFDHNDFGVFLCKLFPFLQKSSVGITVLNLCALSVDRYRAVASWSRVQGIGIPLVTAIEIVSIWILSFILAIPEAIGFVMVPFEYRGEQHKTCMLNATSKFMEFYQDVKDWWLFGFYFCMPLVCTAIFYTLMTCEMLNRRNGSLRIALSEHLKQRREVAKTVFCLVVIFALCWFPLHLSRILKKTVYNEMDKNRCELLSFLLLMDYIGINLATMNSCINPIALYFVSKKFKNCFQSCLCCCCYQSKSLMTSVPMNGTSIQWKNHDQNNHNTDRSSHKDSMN

[5] = target: T3, Alpha-1A adrenergic receptor; assay type: functional, cell-based; remark: listed apart in the source
Also: assay procedure not described here.

Vasopressin V1a receptor, sequence (P37288 whole entry): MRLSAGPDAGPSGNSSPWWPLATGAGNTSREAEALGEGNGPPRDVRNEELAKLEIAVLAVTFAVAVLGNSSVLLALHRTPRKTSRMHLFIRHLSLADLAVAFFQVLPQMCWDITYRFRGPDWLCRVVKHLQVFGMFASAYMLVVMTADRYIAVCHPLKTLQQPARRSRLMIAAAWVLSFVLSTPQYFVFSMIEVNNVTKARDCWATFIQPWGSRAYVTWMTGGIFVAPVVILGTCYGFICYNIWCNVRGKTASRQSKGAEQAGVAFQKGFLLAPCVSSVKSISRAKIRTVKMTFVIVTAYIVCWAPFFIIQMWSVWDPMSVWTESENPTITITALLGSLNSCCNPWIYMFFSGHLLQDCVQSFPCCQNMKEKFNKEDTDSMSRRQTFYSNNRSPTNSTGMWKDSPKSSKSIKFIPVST
Voltage-dependent L-type calcium channel subunit alpha-1C, sequence (P22002 whole entry): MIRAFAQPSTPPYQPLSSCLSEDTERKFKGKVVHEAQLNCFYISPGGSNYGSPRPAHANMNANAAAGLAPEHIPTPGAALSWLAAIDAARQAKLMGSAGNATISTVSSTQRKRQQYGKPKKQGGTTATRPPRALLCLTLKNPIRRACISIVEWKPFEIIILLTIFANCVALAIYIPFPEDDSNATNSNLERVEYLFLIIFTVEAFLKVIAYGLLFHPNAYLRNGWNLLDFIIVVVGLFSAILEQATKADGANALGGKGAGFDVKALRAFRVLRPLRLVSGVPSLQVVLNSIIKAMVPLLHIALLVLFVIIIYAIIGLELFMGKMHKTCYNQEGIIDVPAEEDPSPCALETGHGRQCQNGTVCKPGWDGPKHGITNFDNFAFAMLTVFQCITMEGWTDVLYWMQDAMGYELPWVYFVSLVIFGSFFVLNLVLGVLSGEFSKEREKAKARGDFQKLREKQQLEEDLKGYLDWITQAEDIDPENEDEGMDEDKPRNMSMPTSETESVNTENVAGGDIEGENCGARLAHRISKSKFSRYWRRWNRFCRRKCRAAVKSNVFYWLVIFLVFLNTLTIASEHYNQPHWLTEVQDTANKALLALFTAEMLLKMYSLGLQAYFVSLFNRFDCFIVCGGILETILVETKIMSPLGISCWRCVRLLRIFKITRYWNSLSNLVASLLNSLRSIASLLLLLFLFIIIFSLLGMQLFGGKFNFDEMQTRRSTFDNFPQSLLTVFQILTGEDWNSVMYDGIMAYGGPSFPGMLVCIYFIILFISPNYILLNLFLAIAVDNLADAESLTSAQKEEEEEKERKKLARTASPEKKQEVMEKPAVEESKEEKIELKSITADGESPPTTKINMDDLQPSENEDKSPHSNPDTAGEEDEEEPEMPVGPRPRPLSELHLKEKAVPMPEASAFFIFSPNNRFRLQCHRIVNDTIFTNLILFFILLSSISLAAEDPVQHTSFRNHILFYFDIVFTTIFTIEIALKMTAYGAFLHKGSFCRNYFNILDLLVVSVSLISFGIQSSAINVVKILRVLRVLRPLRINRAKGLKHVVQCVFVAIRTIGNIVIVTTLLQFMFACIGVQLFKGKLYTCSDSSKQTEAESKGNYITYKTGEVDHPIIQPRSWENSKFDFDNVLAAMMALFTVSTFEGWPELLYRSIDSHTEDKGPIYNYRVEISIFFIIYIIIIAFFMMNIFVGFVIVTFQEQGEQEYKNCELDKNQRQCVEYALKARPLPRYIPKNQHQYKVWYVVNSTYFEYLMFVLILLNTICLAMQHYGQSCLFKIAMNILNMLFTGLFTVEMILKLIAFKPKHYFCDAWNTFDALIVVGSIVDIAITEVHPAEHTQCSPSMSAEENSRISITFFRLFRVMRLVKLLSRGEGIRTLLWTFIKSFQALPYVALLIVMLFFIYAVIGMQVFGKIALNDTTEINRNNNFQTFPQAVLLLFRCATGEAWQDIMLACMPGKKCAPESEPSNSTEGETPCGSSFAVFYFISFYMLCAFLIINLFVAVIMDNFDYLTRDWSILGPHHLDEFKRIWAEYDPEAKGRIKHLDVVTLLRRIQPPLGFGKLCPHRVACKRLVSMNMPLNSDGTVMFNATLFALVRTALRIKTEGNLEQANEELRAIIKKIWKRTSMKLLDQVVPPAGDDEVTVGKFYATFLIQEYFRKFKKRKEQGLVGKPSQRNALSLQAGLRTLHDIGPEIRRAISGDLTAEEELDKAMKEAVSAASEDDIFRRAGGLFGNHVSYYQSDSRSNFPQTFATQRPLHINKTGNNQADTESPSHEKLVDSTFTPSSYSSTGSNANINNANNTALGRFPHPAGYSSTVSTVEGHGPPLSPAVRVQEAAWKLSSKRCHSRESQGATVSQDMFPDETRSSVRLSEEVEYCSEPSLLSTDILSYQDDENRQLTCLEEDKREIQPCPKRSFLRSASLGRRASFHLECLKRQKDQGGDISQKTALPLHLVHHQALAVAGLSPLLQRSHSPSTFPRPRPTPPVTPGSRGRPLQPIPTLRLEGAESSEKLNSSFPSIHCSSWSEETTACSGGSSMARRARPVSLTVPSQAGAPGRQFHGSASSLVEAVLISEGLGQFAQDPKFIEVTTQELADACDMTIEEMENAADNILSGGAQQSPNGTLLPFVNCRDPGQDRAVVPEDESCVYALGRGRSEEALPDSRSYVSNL

Row | SMILES | AC50 [1] [µM] | also measured
1 | COCCOc1cnc(NS(=O)(=O)c2ccccc2)nc1 [GLYMIDINE] | > 30 | 
2 | O=P(O)(O)C(Cl)(Cl)P(=O)(O)O [CLODRONIC ACID] | > 30 | 
3 | CC(C)=CCOc1ccc(/C=C/C(=O)c2ccc(OCC=C(C)C)cc2OCC(=O)O)cc1 [SOFALCONE] |  | AC50 (Adenosine receptor A1): > 30 µM; AC50 [2]: > 30 µM; AC50 (Vasopressin V1a receptor): > 30 µM; AC50 [3]: > 30 µM; AC50 [4]: > 30 µM; AC50 (Endothelin-1 receptor): > 30 µM; AC50 [5]: 25 µM
4 | CC(C1=C(CCN(C)C)Cc2ccccc21)c1ccccn1 (stereo not drawn) | 7.57 | 
5 | CCOC(=O)[C@H](CCc1ccccc1)N[C@@H](C)C(=O)N1Cc2cc(OC)c(OC)cc2C[C@H]1C(=O)O [MOEXIPRIL] | > 30 | 
6 | CCOC(=O)c1ccc(OC(=O)CCCCCNC(=N)N)cc1 [GABEXATE] | > 30 | 
7 | Cc1cc(CCN2CCN(c3cccc(Cl)c3)CC2)n[nH]1 [MEPIPRAZOLE] | 26.3 | 
8 | CCCC(=O)O[C@H]1[C@H](C)O[C@@H](O[C@H]2[C@H](N(C)C)[C@@H](O)[C@H](O[C@H]3[C@@H](CC=O)C[C@@H](C)[C@@H](O)/C=C/C=C/C[C@@H](C)OC(=O)C[C@@H](O)[C@@H]3OC)O[C@@H]2C)C[C@@]1(C)OC(=O)CC [ROKITAMYCIN] | > 30 | 
9 | CCOC(=O)[C@H](CCc1ccccc1)N[C@H]1CS[C@H](c2cccs2)CN(CC(=O)O)C1=O [TEMOCAPRIL] | > 30 | 
10 | NC(=O)NCCC[C@H](N)C(=O)O [L-CITRULLINE] | > 30 | 
11 | CC(c1ccc(Cl)c(Cl)c1)N1N=C(N)CC1=O (stereo not drawn) [MUZOLIMINE] | > 30 | 
12 | Nc1ccncc1 [DALFAMPRIDINE] | > 3 | 
13 | C[C@H](N)C(=O)O [ALANINE] | > 30 | 
14 | CCCCOc1ccc(CC(=O)NO)cc1 [BUFEXAMAC] | > 30 | 
15 | CCC(=O)O[C@]1(C(=O)COC(C)=O)CC[C@H]2[C@@H]3CCC4=CC(=O)CC[C@]4(C)[C@H]3[C@@H](O)C[C@@]21C [HYDROCORTISONE ACEPONATE] | 19.3 | 
16 | C[C@@H]1C[C@H]2[C@@H]3C[C@H](F)C4=CC(=O)C=C[C@]4(C)[C@@]3(Cl)[C@@H](O)C[C@]2(C)[C@H]1C(=O)COC(=O)C(C)(C)C [CLOCORTOLONE PIVALATE] | > 30 | 
17 | C[C@@H](O)[C@H]1C(=O)N2C(C(=O)O)=C([C@H]3CCCO3)S[C@H]12 [FAROPENEM] | > 30 | 
